In PubChem BioAssay AID1117351 one finds IC50 data, which are given here for 4 molecules.

Calls of active or inactive are those of the source. How the calls were made is not given here.

This test has as its system HeLa cells, 4N DNA content increase. The test can be described thus: rise of 4N DNA cells, HeLa – IC50, dose response (AID 1117351).
What is called IC50 is the concentration that inhibits the measured activity by half. Consider `Cc1ccc([N+](=O)[O-])[c]2c1[O][Hg]2`, for which the IC50 was > 10 µM (inactive). As to `CCCCCCCCCCCCCC[N+](C)(C)C`, the IC50 is > 10 µM (inactive).

`C[n+]1c2cc(N)ccc2cc2ccc(N)cc21` (tested in a mixture with another compound): the IC50 is > 10 µM (inactive).

`CCCCCCCCCCCC(=O)[O][Sn]([CH2]CCC)([CH2]CCC)[O]C(=O)CCCCCCCCCCC`: the IC50 is > 10 µM (inactive).
